# Experimental data from US20230085307A1, “PYRIDAZINONE COMPOUND AND HERBICIDE” (NISSAN CHEMICAL CORPORATION, priority 2019, published 2023).
# Experiments:
# oval-leafed pondweed = experiment: Test Example 1: herbicidal activity, application before weed generation under submerged conditions (Table 16, symbol C); format: in vivo, oval-leafed pondweed (Monochoria vaginalis); details: 320 g/ha applied herbicide
# Outline: (§1)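 Alluvial soil was flooded to 4 cm depth, weed seeds were sown mixed and 2.5-leaf rice seedlings were transplanted. On sowing day, the compound's emulsion, diluted in water to a set dose, was applied to the water surface. Plants grew at 25–30 °C and were scored 0–5 after three weeks.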
# barnyard grass [1] = experiment: Test Example 3: herbicidal effect by foliage application, Wagner pot (Table 18, symbol H); format: in vivo, barnyard grass (Echinochloa crus-galli); details: for herbicidal effect on H (barnyard grass), rating 0-5: 320 g/ha; for herbicidal effect on H: barnyard grass: amount of applied herbicide 320 g/ha
# Outline: (§2)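 Plants were sown in alluvial soil held under 0.1–0.5 cm standing water and grown 14 days in a greenhouse at 25–30 °C. An emulsifiable formulation, water-diluted to the set dose, was then sprayed onto the foliage, and effects were scored three weeks later using previously defined criteria.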
# rice flat sedge = experiment: Test Example 3: herbicidal effect by foliage application, Wagner pot (Table 18, symbol E); format: in vivo, rice flat sedge (Cyperus iria); details: for herbicidal effect on E (rice flat sedge), rating 0-5: 320 g/ha; for herbicidal effect on E: rice flat sedge: amount of applied herbicide 320 g/ha
# Outline: as §2
# chickweed = experiment: Test Example 4: herbicidal effect by soil treatment (Table 19, symbol P); format: in vivo, common chickweed (Stellaria media); details: for herbicidal effect rating, P: chickweed: 320 g/ha; for P: chickweed, herbicidal effect rating: amount of applied herbicide 320 g/ha
# Outline: (§3)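 Emulsion of test compound, water-diluted to predetermined amount, sprayed on soil after sowing (seed depth ~1.5 cm, sterilized diluvial soil). Greenhouse, 25–30° C. Effect graded at three weeks post-spray.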
# barnyard grass [2] = experiment: Test Example 5: herbicidal effect by foliage application, plastic box (Table 20, symbol H); format: in vivo, barnyard grass (Echinochloa crus-galli); details: foliage application, 320 g/ha, evaluated three weeks after application
# Outline: (§4)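 Post-emergence foliar test in sterilized diluvial soil. Compound applied as water-diluted emulsion at a predetermined rate to 14-day-old plants; evaluation at three weeks.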
# southern crabgrass = experiment: Test Example 5: herbicidal effect by foliage application, plastic box (Table 20, symbol F); format: in vivo, southern crabgrass (Digitaria ciliaris); details: foliage application, 320 g/ha, evaluated three weeks after application
# Outline: as §4
# blackgrass = experiment: Test Example 5: herbicidal effect by foliage application, plastic box (Table 20, symbol J); format: in vivo, blackgrass (Alopecurus myosuroides); details: foliage application, 320 g/ha, evaluated three weeks after application
# Outline: as §4
# green foxtail = experiment: Test Example 4: herbicidal effect by soil treatment (Table 19, symbol G); format: in vivo, green foxtail (Setaria viridis); details: for herbicidal effect rating, G: green foxtail: 320 g/ha; for G: green foxtail, herbicidal effect rating: amount of applied herbicide 320 g/ha
# Outline: as §3
# velvetleaf = experiment: Test Example 4: herbicidal effect by soil treatment (Table 19, symbol M); format: in vivo, velvetleaf (Abutilon theophrasti); details: for herbicidal effect rating, M: velvetleaf: 320 g/ha; for M: velvetleaf, herbicidal effect rating: amount of applied herbicide 320 g/ha
# Outline: as §3
# wild oat = experiment: Test Example 5: herbicidal effect by foliage application, plastic box (Table 20, symbol I); format: in vivo, wild oat (Avena fatua); details: foliage application, 320 g/ha, evaluated three weeks after application
# Outline: as §4
# persian speedwell [3] = experiment: Test Example 4: herbicidal effect by soil treatment (Table 19, symbol R); format: in vivo, Persian speedwell (Veronica persica); details: for herbicidal effect rating, R: persian speedwell: 320 g/ha; for R: persian speedwell, herbicidal effect rating: amount of applied herbicide 320 g/ha
# Outline: as §3
# Japanese bulrush = experiment: Test Example 2: herbicidal activity, application during weed generation under submerged conditions (Table 17, symbol B); format: in vivo, Japanese bulrush (Schoenoplectus juncoides); details: AAH 320 g/ha; application during weed generation, submerged conditions
# Outline: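 Herbicide emulsion, diluted with water to the chosen amount, is applied onto 4 cm floodwater over alluvial soil where the weeds were co-sown and raised at 25–30° C. Application timing: 1–2 leaves. Assessment: three weeks afterwards.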
# late watergrass = experiment: Test Example 1: herbicidal activity, application before weed generation under submerged conditions (Table 16, symbol A); format: in vivo, late watergrass (Echinochloa oryzicola); details: 320 g/ha applied herbicide
# Outline: as §1
# barnyard grass [4] = experiment: Test Example 4: herbicidal effect by soil treatment (Table 19, symbol H); format: in vivo, barnyard grass (Echinochloa crus-galli); details: for herbicidal effect rating, H: barnyard grass: 320 g/ha; for H: barnyard grass, herbicidal effect rating: amount of applied herbicide 320 g/ha
# Outline: as §3
# redroot pigweed = experiment: Test Example 4: herbicidal effect by soil treatment (Table 19, symbol N); format: in vivo, redroot pigweed (Amaranthus retroflexus); details: for herbicidal effect rating, N: redroot pigweed: 320 g/ha; for N: redroot pigweed, herbicidal effect rating: amount of applied herbicide 320 g/ha
# Outline: as §3
# persian speedwell [5] = experiment: Test Example 5: herbicidal effect by foliage application, plastic box (Table 20, symbol R); format: in vivo, Persian speedwell (Veronica persica); details: foliage application, 320 g/ha, evaluated three weeks after application
# Outline: as §4
smiles,measurement,setting,value
CCCC(=O)Oc1c(C)nn(C)c(=O)c1-c1c(-c2ccc(F)cc2OCC)sc2ccc(F)cc12 [2-085],Herbicidal effect on C: oval-leafed pondweed (grade 0-5),oval-leafed pondweed,1 (Herbicidal rate of 5% or more and less than 20%)
same,"herbicidal effect on H (barnyard grass), rating 0-5",barnyard grass [1],5 (Herbicidal rate of 90% or more (almost completely withered))
same,"herbicidal effect on E (rice flat sedge), rating 0-5",rice flat sedge,4 (Herbicidal rate of 70% or more and less than 90%)
same,"herbicidal effect rating, P: chickweed",chickweed,3 (Herbicidal rate of 40% or more and less than 70%)
same,herbicidal effect on H: barnyard grass,barnyard grass [2],4 (Herbicidal rate of 70% or more and less than 90%)
same,herbicidal effect on F: southern crabgrass,southern crabgrass,5 (Herbicidal rate of 90% or more (almost completely withered))
same,herbicidal effect on J: blackgrass,blackgrass,1 (Herbicidal rate of 5% or more and less than 20%)
same,"herbicidal effect rating, G: green foxtail",green foxtail,3 (Herbicidal rate of 40% or more and less than 70%)
same,"herbicidal effect rating, M: velvetleaf",velvetleaf,0 (Herbicidal rate of 5% or less (almost no effect))
same,herbicidal effect on I: wild oat,wild oat,3 (Herbicidal rate of 40% or more and less than 70%)
same,"herbicidal effect rating, R: persian speedwell",persian speedwell [3],3 (Herbicidal rate of 40% or more and less than 70%)
same,"herbicidal effect rating, B: Japanese bulrush",Japanese bulrush,3 (Herbicidal rate of 40% or more and less than 70%)
same,Herbicidal effect on A: late watergrass (grade 0-5),late watergrass,4 (Herbicidal rate of 70% or more and less than 90%)
same,"herbicidal effect rating, H: barnyard grass",barnyard grass [4],3 (Herbicidal rate of 40% or more and less than 70%)
same,"herbicidal effect rating, N: redroot pigweed",redroot pigweed,5 (Herbicidal rate of 90% or more (almost completely withered))
same,herbicidal effect on R: persian speedwell,persian speedwell [5],4 (Herbicidal rate of 70% or more and less than 90%)
Cc1nn(C)c(=O)c(-c2c(-c3ccc4c(c3)OCCO4)sc3ccc(F)cc23)c1O [2-092],Herbicidal effect on C: oval-leafed pondweed (grade 0-5),oval-leafed pondweed,2 (Herbicidal rate of 20% or more and less than 40%)
same,"herbicidal effect on H (barnyard grass), rating 0-5",barnyard grass [1],5 (Herbicidal rate of 90% or more (almost completely withered))
same,"herbicidal effect on E (rice flat sedge), rating 0-5",rice flat sedge,5 (Herbicidal rate of 90% or more (almost completely withered))
same,"herbicidal effect rating, P: chickweed",chickweed,4 (Herbicidal rate of 70% or more and less than 90%)
same,herbicidal effect on H: barnyard grass,barnyard grass [2],5 (Herbicidal rate of 90% or more (almost completely withered))
same,herbicidal effect on F: southern crabgrass,southern crabgrass,4 (Herbicidal rate of 70% or more and less than 90%)
same,herbicidal effect on J: blackgrass,blackgrass,4 (Herbicidal rate of 70% or more and less than 90%)
same,"herbicidal effect rating, G: green foxtail",green foxtail,2 (Herbicidal rate of 20% or more and less than 40%)
same,"herbicidal effect rating, M: velvetleaf",velvetleaf,5 (Herbicidal rate of 90% or more (almost completely withered))
same,herbicidal effect on I: wild oat,wild oat,3 (Herbicidal rate of 40% or more and less than 70%)
same,"herbicidal effect rating, R: persian speedwell",persian speedwell [3],5 (Herbicidal rate of 90% or more (almost completely withered))
same,"herbicidal effect rating, B: Japanese bulrush",Japanese bulrush,3 (Herbicidal rate of 40% or more and less than 70%)
same,Herbicidal effect on A: late watergrass (grade 0-5),late watergrass,2 (Herbicidal rate of 20% or more and less than 40%)
same,"herbicidal effect rating, H: barnyard grass",barnyard grass [4],3 (Herbicidal rate of 40% or more and less than 70%)
same,"herbicidal effect rating, N: redroot pigweed",redroot pigweed,4 (Herbicidal rate of 70% or more and less than 90%)
same,herbicidal effect on R: persian speedwell,persian speedwell [5],5 (Herbicidal rate of 90% or more (almost completely withered))
Cc1nn(C)c(=O)c(-c2c(-c3ccc(C(F)(F)F)cc3)sc3ccc(Cl)cc23)c1O [2-111],Herbicidal effect on C: oval-leafed pondweed (grade 0-5),oval-leafed pondweed,0 (Herbicidal rate of 5% or less (almost no effect))
same,herbicidal effect on H: barnyard grass,barnyard grass [1],4 (Herbicidal rate of 70% or more and less than 90%)
same,herbicidal effect on E: rice flat sedge,rice flat sedge,3 (Herbicidal rate of 40% or more and less than 70%)
same,"P: chickweed, herbicidal effect rating",chickweed,0 (Herbicidal rate of 5% or less (almost no effect))
same,herbicidal effect on H: barnyard grass,barnyard grass [2],4 (Herbicidal rate of 70% or more and less than 90%)
same,herbicidal effect on F: southern crabgrass,southern crabgrass,0 (Herbicidal rate of 5% or less (almost no effect))
same,herbicidal effect on J: blackgrass,blackgrass,5 (Herbicidal rate of 90% or more (almost completely withered))
same,"G: green foxtail, herbicidal effect rating",green foxtail,0 (Herbicidal rate of 5% or less (almost no effect))
same,"M: velvetleaf, herbicidal effect rating",velvetleaf,0 (Herbicidal rate of 5% or less (almost no effect))
same,herbicidal effect on I: wild oat,wild oat,0 (Herbicidal rate of 5% or less (almost no effect))
same,"R: persian speedwell, herbicidal effect rating",persian speedwell [3],5 (Herbicidal rate of 90% or more (almost completely withered))
same,"herbicidal effect rating, B: Japanese bulrush",Japanese bulrush,1 (Herbicidal rate of 5% or more and less than 20%)
same,Herbicidal effect on A: late watergrass (grade 0-5),late watergrass,3 (Herbicidal rate of 40% or more and less than 70%)
same,"H: barnyard grass, herbicidal effect rating",barnyard grass [4],0 (Herbicidal rate of 5% or less (almost no effect))
same,"N: redroot pigweed, herbicidal effect rating",redroot pigweed,5 (Herbicidal rate of 90% or more (almost completely withered))
same,herbicidal effect on R: persian speedwell,persian speedwell [5],5 (Herbicidal rate of 90% or more (almost completely withered))
CCCC(=O)Oc1c(C)nn(C)c(=O)c1-c1c(-c2ccccc2OC)sc2ccc(C)cc12 [2-139],Herbicidal effect on C: oval-leafed pondweed (grade 0-5),oval-leafed pondweed,1 (Herbicidal rate of 5% or more and less than 20%)
same,herbicidal effect on H: barnyard grass,barnyard grass [1],4 (Herbicidal rate of 70% or more and less than 90%)
same,herbicidal effect on E: rice flat sedge,rice flat sedge,4 (Herbicidal rate of 70% or more and less than 90%)
same,"P: chickweed, herbicidal effect rating",chickweed,5 (Herbicidal rate of 90% or more (almost completely withered))
same,herbicidal effect on H: barnyard grass,barnyard grass [2],4 (Herbicidal rate of 70% or more and less than 90%)
same,herbicidal effect on F: southern crabgrass,southern crabgrass,3 (Herbicidal rate of 40% or more and less than 70%)
same,herbicidal effect on J: blackgrass,blackgrass,2 (Herbicidal rate of 20% or more and less than 40%)
same,"G: green foxtail, herbicidal effect rating",green foxtail,0 (Herbicidal rate of 5% or less (almost no effect))
same,"M: velvetleaf, herbicidal effect rating",velvetleaf,0 (Herbicidal rate of 5% or less (almost no effect))
same,herbicidal effect on I: wild oat,wild oat,1 (Herbicidal rate of 5% or more and less than 20%)
same,"R: persian speedwell, herbicidal effect rating",persian speedwell [3],4 (Herbicidal rate of 70% or more and less than 90%)
same,"herbicidal effect rating, B: Japanese bulrush",Japanese bulrush,3 (Herbicidal rate of 40% or more and less than 70%)
same,Herbicidal effect on A: late watergrass (grade 0-5),late watergrass,4 (Herbicidal rate of 70% or more and less than 90%)
same,"H: barnyard grass, herbicidal effect rating",barnyard grass [4],0 (Herbicidal rate of 5% or less (almost no effect))
same,"N: redroot pigweed, herbicidal effect rating",redroot pigweed,0 (Herbicidal rate of 5% or less (almost no effect))
same,herbicidal effect on R: persian speedwell,persian speedwell [5],4 (Herbicidal rate of 70% or more and less than 90%)
C=Cc1ccc2sc(-c3ccccc3OC)c(-c3c(O)c(C)nn(C)c3=O)c2c1 [2-185],Herbicidal effect on C: oval-leafed pondweed (grade 0-5),oval-leafed pondweed,5 (Herbicidal rate of 90% or more (almost completely withered))
same,herbicidal effect on H: barnyard grass,barnyard grass [1],3 (Herbicidal rate of 40% or more and less than 70%)
same,herbicidal effect on E: rice flat sedge,rice flat sedge,2 (Herbicidal rate of 20% or more and less than 40%)
same,"P: chickweed, herbicidal effect rating",chickweed,0 (Herbicidal rate of 5% or less (almost no effect))
same,herbicidal effect on H: barnyard grass (criteria 0-5),barnyard grass [2],0 (Herbicidal rate of 5% or less (almost no effect))
same,herbicidal effect on F: southern crabgrass (criteria 0-5),southern crabgrass,2 (Herbicidal rate of 20% or more and less than 40%)
same,herbicidal effect on J: blackgrass (criteria 0-5),blackgrass,1 (Herbicidal rate of 5% or more and less than 20%)
same,"G: green foxtail, herbicidal effect rating",green foxtail,0 (Herbicidal rate of 5% or less (almost no effect))
same,"M: velvetleaf, herbicidal effect rating",velvetleaf,0 (Herbicidal rate of 5% or less (almost no effect))
same,herbicidal effect on I: wild oat (criteria 0-5),wild oat,0 (Herbicidal rate of 5% or less (almost no effect))
same,"R: persian speedwell, herbicidal effect rating",persian speedwell [3],0 (Herbicidal rate of 5% or less (almost no effect))
same,"herbicidal effect rating, B: Japanese bulrush",Japanese bulrush,0 (Herbicidal rate of 5% or less (almost no effect))
same,Herbicidal effect on A: late watergrass (grade 0-5),late watergrass,0 (Herbicidal rate of 5% or less (almost no effect))
same,"H: barnyard grass, herbicidal effect rating",barnyard grass [4],0 (Herbicidal rate of 5% or less (almost no effect))
same,"N: redroot pigweed, herbicidal effect rating",redroot pigweed,5 (Herbicidal rate of 90% or more (almost completely withered))
same,herbicidal effect on R: persian speedwell (criteria 0-5),persian speedwell [5],4 (Herbicidal rate of 70% or more and less than 90%)
